Results published in article PMC9433317, “Discovery, structure and mechanism of a tetraether lipid synthase” (Nature, 2022).

How the values were obtained:
GDGT–MAS (MJ0619; Tes) [1] = target: T1, GDGT–MAS (MJ0619; Tes) (Methanocaldococcus jannaschii, UniProt Q58036); assay: X-ray crystal structure, […] Å; assay type: binding; settings: lipid-exchanged from M. acetivorans extract; with 5'-dAH and methionine; lipid identity assigned from electron density; second lipid site
T1 sequence (Q58036 1-506): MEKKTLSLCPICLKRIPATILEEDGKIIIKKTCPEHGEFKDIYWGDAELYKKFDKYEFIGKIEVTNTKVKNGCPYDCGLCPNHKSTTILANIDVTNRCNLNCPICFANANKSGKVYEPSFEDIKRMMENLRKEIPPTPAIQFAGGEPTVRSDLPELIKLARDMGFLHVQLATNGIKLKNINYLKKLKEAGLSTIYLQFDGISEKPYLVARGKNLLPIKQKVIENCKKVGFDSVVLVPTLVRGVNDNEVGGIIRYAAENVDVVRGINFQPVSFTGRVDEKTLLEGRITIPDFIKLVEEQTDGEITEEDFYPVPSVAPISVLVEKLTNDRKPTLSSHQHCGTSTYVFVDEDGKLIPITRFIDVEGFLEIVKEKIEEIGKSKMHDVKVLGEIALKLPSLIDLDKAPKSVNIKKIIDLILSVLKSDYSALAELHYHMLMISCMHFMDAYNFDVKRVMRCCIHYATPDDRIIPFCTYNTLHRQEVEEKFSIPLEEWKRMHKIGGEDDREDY

GDGT–MAS (MJ0619; Tes) [2] = target: T1, GDGT–MAS (MJ0619; Tes); assay: X-ray crystal structures, […] Å and […] Å; assay type: binding; settings: with 5'-dAH and bound lipids; bidentate to the unique iron of the radical SAM [Fe4S4] cluster

CC(C)CCC[C@@H](C)CCC[C@@H](C)CCC[C@@H](C)CCOC[C@@H](COP(=O)(O)O)OCC[C@H](C)CCC[C@H](C)CCC[C@H](C)CCCC(C)C [L1P, 2,3-di-O-phytanyl-sn-glycero-1-phosphate]
X-ray crystal structure, 2.05 Å (GDGT–MAS (MJ0619; Tes) [1]): Unmodelled electron density in the active site was assigned as two archaeal lipid molecules

CSCC[C@H](N)C(=O)O [Met, methionine]
X-ray crystal structures, 1.85 Å and 2.05 Å (GDGT–MAS (MJ0619; Tes) [2]): methionine coordinates to the unique iron in a bidentate manner
